In patent US20220096516A1, “OLIGONUCLEOTIDE MOLECULE AND APPLICATION THEREOF IN TUMOR THERAPY” (Ractigen Therapeutics, priority 2019, published 2022):
d = 2'-deoxy (DNA); r = 2'-OH (RNA)

System: LHPP gene
Experiment: High-throughput screening of saRNAs targeting LHPP promoter: LHPP mRNA by one-step RT-qPCR in Huh7 cells
Format: cell-based, human
Details: 10 nM saRNA, 72 hours, relative to control (Mock)
Procedure, shortened: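 LHPP transcript level relative to mock, normalised to the geometric mean of the HPRT1 and TBP reference genes, measured by one-step RT-qPCR on crude lysates. Huh7 cells had been RNAiMax-transfected with each saRNA at 10 nM for 72 h.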

Row | Substance | Fold of changes in relative LHPP mRNA expression level [fold] | Fold of changes in relative LHPP mRNA expression level (log2)
1 | RAG7-722: saRNA duplex; sense UGUGAUAGUCCCGUUUUCUTT (SEQ ID NO: 135), antisense AGAAAACGGGACUAUCACATT (SEQ ID NO: 299) (sugars from the 5' end r19 d2, backbone not given here) | 1.15 | 0.21
2 | RAG7-726: saRNA duplex; sense GCAUUGUGAUAGUCCCGUUTT (SEQ ID NO: 127), antisense AACGGGACUAUCACAAUGCTT (SEQ ID NO: 291) (sugars from the 5' end r19 d2, backbone not given here) | 1.17 | 0.22
3 | RAG7-735: saRNA duplex; sense GGGUUUAACGCAUUGUGAUTT (SEQ ID NO: 114), antisense AUCACAAUGCGUUAAACCCTT (SEQ ID NO: 278) (sugars from the 5' end r19 d2, backbone not given here) | 1.19 | 0.25
4 | RAG7-736: saRNA duplex; sense UGGGUUUAACGCAUUGUGATT (SEQ ID NO: 131), antisense UCACAAUGCGUUAAACCCATT (SEQ ID NO: 295) (sugars from the 5' end r19 d2, backbone not given here) | 1.16 | 0.22
5 | RAG7-738: saRNA duplex; sense CCUGGGUUUAACGCAUUGUTT (SEQ ID NO: 159), antisense ACAAUGCGUUAAACCCAGGTT (SEQ ID NO: 323) (sugars from the 5' end r19 d2, backbone not given here) | 1.11 | 0.15
6 | RAG7-741: saRNA duplex; sense CCUCCUGGGUUUAACGCAUTT (SEQ ID NO: 95), antisense AUGCGUUAAACCCAGGAGGTT (SEQ ID NO: 259) (sugars from the 5' end r19 d2, backbone not given here) | 1.23 | 0.30
7 | RAG7-745: saRNA duplex; sense AAAACCUCCUGGGUUUAACTT (SEQ ID NO: 154), antisense GUUAAACCCAGGAGGUUUUTT (SEQ ID NO: 318) (sugars from the 5' end r19 d2, backbone not given here) | 1.11 | 0.15
8 | RAG7-776: saRNA duplex; sense UAGCAUCGAGUGGUAUUUUTT (SEQ ID NO: 56), antisense AAAAUACCACUCGAUGCUATT (SEQ ID NO: 220) (sugars from the 5' end r19 d2, backbone not given here) | 1.35 | 0.44
9 | RAG7-778: saRNA duplex; sense UGUAGCAUCGAGUGGUAUUTT (SEQ ID NO: 70), antisense AAUACCACUCGAUGCUACATT (SEQ ID NO: 234) (sugars from the 5' end r19 d2, backbone not given here) | 1.29 | 0.37
10 | RAG7-780: saRNA duplex; sense AAUGUAGCAUCGAGUGGUATT (SEQ ID NO: 142), antisense UACCACUCGAUGCUACAUUTT (SEQ ID NO: 306) (sugars from the 5' end r19 d2, backbone not given here) | 1.14 | 0.19
11 | RAG7-821: saRNA duplex; sense ACUCCUCCCUUUUAAUAUCTT (SEQ ID NO: 89), antisense GAUAUUAAAAGGGAGGAGUTT (SEQ ID NO: 253) (sugars from the 5' end r19 d2, backbone not given here) | 1.25 | 0.32
12 | RAG7-826: saRNA duplex; sense AGGAAACUCCUCCCUUUUATT (SEQ ID NO: 157), antisense UAAAAGGGAGGAGUUUCCUTT (SEQ ID NO: 321) (sugars from the 5' end r19 d2, backbone not given here) | 1.11 | 0.15
13 | RAG7-828: saRNA duplex; sense UGAGGAAACUCCUCCCUUUTT (SEQ ID NO: 108), antisense AAAGGGAGGAGUUUCCUCATT (SEQ ID NO: 272) (sugars from the 5' end r19 d2, backbone not given here) | 1.20 | 0.26
14 | RAG7-829: saRNA duplex; sense UUGAGGAAACUCCUCCCUUTT (SEQ ID NO: 29), antisense AAGGGAGGAGUUUCCUCAATT (SEQ ID NO: 193) (sugars from the 5' end r19 d2, backbone not given here) | 1.50 | 0.59
15 | RAG7-830: saRNA duplex; sense AUUGAGGAAACUCCUCCCUTT (SEQ ID NO: 36), antisense AGGGAGGAGUUUCCUCAAUTT (SEQ ID NO: 200) (sugars from the 5' end r19 d2, backbone not given here) | 1.45 | 0.54
16 | RAG7-832: saRNA duplex; sense CCAUUGAGGAAACUCCUCCTT (SEQ ID NO: 139), antisense GGAGGAGUUUCCUCAAUGGTT (SEQ ID NO: 303) (sugars from the 5' end r19 d2, backbone not given here) | 1.14 | 0.19
17 | RAG7-833: saRNA duplex; sense GCCAUUGAGGAAACUCCUCTT (SEQ ID NO: 138), antisense GAGGAGUUUCCUCAAUGGCTT (SEQ ID NO: 302) (sugars from the 5' end r19 d2, backbone not given here) | 1.14 | 0.20
18 | RAG7-837: saRNA duplex; sense AGGGGCCAUUGAGGAAACUTT (SEQ ID NO: 109), antisense AGUUUCCUCAAUGGCCCCUTT (SEQ ID NO: 273) (sugars from the 5' end r19 d2, backbone not given here) | 1.20 | 0.26
19 | RAG7-839: saRNA duplex; sense CGAGGGGCCAUUGAGGAAATT (SEQ ID NO: 158), antisense UUUCCUCAAUGGCCCCUCGTT (SEQ ID NO: 322) (sugars from the 5' end r19 d2, backbone not given here) | 1.11 | 0.15
20 | RAG7-844: saRNA duplex; sense GGUUCCGAGGGGCCAUUGATT (SEQ ID NO: 129), antisense UCAAUGGCCCCUCGGAACCTT (SEQ ID NO: 293) (sugars from the 5' end r19 d2, backbone not given here) | 1.17 | 0.22
21 | RAG7-846: saRNA duplex; sense AAGGUUCCGAGGGGCCAUUTT (SEQ ID NO: 11), antisense AAUGGCCCCUCGGAACCUUTT (SEQ ID NO: 175) (sugars from the 5' end r19 d2, backbone not given here) | 1.68 | 0.75
22 | RAG7-847: saRNA duplex; sense AAAGGUUCCGAGGGGCCAUTT (SEQ ID NO: 34), antisense AUGGCCCCUCGGAACCUUUTT (SEQ ID NO: 198) (sugars from the 5' end r19 d2, backbone not given here) | 1.48 | 0.56
23 | RAG7-848: saRNA duplex; sense GAAAGGUUCCGAGGGGCCATT (SEQ ID NO: 87), antisense UGGCCCCUCGGAACCUUUCTT (SEQ ID NO: 251) (sugars from the 5' end r19 d2, backbone not given here) | 1.25 | 0.32
24 | RAG7-850: saRNA duplex; sense UUGAAAGGUUCCGAGGGGCTT (SEQ ID NO: 46), antisense GCCCCUCGGAACCUUUCAATT (SEQ ID NO: 210) (sugars from the 5' end r19 d2, backbone not given here) | 1.39 | 0.47
25 | RAG7-851: saRNA duplex; sense CUUGAAAGGUUCCGAGGGGTT (SEQ ID NO: 163), antisense CCCCUCGGAACCUUUCAAGTT (SEQ ID NO: 327) (sugars from the 5' end r19 d2, backbone not given here) | 1.10 | 0.14
26 | RAG7-852: saRNA duplex; sense ACUUGAAAGGUUCCGAGGGTT (SEQ ID NO: 128), antisense CCCUCGGAACCUUUCAAGUTT (SEQ ID NO: 292) (sugars from the 5' end r19 d2, backbone not given here) | 1.17 | 0.22
27 | RAG7-853: saRNA duplex; sense AACUUGAAAGGUUCCGAGGTT (SEQ ID NO: 146), antisense CCUCGGAACCUUUCAAGUUTT (SEQ ID NO: 310) (sugars from the 5' end r19 d2, backbone not given here) | 1.14 | 0.18
